Read-outs that look alike come from different tables or passages of the source.
Legend:
Type in all cases: biochemical
[1] = biological target: T1, PI3K δ (Homo sapiens, UniProt O00329); experiment: PI 3-Kinase (human) HTRF assay, PI3K δ; conditions: read-out: PI3K δ IC50
T1 construct: purchased Upstate / Millipore Corporation

[2] = biological target: T2, PI3K γ (p110γ) (Homo sapiens, UniProt P48736); experiment: PI 3-Kinase (human) HTRF assay, PI3K γ; conditions: read-out: PI3K γ IC50
T2 construct: purchased Upstate / Millipore Corporation
T2 sequence (P48736 whole entry): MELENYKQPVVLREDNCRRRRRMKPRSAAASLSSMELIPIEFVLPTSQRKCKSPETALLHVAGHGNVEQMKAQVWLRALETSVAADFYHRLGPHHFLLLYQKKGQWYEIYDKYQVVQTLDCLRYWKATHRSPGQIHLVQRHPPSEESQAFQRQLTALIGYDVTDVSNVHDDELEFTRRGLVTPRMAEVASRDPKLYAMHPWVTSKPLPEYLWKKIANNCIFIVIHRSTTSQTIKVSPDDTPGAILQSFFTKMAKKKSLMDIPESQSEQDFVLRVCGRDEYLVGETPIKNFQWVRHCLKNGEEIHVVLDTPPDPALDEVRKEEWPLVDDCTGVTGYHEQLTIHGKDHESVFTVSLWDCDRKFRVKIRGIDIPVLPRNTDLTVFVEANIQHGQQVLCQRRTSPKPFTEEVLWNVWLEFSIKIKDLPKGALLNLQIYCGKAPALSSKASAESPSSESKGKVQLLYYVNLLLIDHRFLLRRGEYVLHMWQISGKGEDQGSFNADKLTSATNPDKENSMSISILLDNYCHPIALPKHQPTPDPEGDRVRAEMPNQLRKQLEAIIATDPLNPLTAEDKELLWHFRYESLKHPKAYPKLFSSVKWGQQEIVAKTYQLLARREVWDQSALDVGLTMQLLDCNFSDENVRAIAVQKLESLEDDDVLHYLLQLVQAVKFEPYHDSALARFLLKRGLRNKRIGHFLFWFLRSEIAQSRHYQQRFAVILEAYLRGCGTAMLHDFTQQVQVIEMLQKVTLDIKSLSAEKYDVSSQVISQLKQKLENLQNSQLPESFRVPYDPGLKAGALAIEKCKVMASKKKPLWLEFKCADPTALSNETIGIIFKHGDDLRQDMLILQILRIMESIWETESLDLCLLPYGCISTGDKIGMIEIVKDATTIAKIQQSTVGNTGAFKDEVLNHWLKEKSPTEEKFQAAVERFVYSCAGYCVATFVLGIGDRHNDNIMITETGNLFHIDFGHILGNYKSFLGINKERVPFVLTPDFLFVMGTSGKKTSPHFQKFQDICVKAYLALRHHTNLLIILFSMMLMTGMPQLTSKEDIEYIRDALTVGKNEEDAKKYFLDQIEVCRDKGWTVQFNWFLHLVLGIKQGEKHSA

[3] = biological target: T3, PI3K α (p110α/p85α) (Homo sapiens, UniProt P42336); experiment: PI 3-Kinase (human) HTRF assay, PI3K α; conditions: read-out: PI3K α IC50
T3 construct: purchased Upstate / Millipore Corporation
T3 sequence (P42336 whole entry): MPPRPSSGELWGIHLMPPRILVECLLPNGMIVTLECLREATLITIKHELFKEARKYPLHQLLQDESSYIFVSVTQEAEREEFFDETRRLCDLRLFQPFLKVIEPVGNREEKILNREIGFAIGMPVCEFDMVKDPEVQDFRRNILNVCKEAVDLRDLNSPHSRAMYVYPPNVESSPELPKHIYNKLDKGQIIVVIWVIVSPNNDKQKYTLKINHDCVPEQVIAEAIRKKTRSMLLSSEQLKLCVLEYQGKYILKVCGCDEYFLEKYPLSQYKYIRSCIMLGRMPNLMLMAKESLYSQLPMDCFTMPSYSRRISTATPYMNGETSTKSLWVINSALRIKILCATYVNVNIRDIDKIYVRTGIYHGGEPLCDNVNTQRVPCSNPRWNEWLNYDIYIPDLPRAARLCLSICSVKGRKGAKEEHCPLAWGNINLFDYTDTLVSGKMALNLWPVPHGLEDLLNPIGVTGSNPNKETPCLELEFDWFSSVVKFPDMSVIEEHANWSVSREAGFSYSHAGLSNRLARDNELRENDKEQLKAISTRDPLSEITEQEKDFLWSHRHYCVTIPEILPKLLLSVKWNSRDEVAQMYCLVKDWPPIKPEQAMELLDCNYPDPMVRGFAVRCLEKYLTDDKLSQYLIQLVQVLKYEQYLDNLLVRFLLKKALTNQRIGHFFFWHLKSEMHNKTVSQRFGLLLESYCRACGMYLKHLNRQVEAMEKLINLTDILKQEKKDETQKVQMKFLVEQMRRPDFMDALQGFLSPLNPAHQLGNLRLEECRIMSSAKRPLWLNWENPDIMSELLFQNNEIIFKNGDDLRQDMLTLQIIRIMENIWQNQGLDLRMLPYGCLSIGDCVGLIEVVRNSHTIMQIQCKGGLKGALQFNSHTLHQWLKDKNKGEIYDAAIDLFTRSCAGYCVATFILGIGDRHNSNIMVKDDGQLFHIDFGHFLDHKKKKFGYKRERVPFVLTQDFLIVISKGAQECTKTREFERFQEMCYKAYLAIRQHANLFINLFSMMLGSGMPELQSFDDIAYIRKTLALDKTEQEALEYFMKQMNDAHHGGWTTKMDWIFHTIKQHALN
T3 sequence (P27986 whole entry partner): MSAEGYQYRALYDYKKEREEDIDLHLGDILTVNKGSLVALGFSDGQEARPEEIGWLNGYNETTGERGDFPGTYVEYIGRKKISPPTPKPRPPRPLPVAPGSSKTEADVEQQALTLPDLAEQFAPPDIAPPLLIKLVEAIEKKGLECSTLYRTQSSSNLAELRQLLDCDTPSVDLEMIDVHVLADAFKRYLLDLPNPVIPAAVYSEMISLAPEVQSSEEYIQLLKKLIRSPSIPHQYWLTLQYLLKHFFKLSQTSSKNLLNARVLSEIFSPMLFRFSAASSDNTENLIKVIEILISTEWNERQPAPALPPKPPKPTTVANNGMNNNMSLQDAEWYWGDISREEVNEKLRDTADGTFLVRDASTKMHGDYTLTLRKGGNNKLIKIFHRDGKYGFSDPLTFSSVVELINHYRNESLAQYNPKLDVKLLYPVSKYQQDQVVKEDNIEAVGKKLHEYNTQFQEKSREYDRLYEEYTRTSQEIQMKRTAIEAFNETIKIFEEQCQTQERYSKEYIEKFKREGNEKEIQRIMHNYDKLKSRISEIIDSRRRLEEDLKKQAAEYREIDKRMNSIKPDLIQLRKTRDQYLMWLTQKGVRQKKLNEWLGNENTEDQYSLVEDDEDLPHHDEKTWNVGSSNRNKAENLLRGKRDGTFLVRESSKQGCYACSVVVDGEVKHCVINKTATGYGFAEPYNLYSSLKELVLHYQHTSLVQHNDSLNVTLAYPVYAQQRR

[4] = biological target: T4, PI3K β (p110β/p85α) (Homo sapiens, UniProt P42338); experiment: PI 3-Kinase (human) HTRF assay, PI3K β; conditions: read-out: PI3K β IC50
T4 construct: purchased Upstate / Millipore Corporation
T4 sequence (P42338 whole entry): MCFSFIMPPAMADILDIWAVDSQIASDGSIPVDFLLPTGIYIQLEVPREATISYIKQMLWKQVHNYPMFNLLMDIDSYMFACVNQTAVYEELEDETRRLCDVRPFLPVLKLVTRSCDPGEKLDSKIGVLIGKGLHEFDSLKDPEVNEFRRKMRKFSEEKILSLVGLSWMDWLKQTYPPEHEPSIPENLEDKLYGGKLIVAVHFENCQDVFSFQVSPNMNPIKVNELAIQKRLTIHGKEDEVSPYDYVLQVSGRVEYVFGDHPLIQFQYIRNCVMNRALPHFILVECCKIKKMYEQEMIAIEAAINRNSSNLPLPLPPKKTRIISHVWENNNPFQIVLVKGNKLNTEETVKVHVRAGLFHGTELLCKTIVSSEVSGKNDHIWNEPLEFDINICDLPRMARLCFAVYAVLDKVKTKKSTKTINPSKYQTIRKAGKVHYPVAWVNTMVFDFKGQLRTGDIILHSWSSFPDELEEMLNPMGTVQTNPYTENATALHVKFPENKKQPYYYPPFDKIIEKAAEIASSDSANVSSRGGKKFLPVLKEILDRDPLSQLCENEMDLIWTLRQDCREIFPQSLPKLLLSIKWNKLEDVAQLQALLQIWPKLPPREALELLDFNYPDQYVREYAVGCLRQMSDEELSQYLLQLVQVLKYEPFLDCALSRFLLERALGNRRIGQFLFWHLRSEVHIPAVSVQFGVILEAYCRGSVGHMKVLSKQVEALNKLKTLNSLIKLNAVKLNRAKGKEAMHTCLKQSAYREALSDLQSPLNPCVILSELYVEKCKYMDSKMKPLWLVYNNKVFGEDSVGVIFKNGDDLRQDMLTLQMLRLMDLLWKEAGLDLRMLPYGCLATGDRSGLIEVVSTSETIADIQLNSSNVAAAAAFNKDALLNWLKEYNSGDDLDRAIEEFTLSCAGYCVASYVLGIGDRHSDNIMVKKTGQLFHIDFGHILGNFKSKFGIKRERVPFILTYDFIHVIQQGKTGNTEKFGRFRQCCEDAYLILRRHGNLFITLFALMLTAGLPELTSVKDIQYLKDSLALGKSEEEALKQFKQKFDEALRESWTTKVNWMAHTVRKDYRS
T4 sequence (P27986 whole entry partner): as the sequence (P27986 whole entry partner) above

T1 sequence (O00329 whole entry): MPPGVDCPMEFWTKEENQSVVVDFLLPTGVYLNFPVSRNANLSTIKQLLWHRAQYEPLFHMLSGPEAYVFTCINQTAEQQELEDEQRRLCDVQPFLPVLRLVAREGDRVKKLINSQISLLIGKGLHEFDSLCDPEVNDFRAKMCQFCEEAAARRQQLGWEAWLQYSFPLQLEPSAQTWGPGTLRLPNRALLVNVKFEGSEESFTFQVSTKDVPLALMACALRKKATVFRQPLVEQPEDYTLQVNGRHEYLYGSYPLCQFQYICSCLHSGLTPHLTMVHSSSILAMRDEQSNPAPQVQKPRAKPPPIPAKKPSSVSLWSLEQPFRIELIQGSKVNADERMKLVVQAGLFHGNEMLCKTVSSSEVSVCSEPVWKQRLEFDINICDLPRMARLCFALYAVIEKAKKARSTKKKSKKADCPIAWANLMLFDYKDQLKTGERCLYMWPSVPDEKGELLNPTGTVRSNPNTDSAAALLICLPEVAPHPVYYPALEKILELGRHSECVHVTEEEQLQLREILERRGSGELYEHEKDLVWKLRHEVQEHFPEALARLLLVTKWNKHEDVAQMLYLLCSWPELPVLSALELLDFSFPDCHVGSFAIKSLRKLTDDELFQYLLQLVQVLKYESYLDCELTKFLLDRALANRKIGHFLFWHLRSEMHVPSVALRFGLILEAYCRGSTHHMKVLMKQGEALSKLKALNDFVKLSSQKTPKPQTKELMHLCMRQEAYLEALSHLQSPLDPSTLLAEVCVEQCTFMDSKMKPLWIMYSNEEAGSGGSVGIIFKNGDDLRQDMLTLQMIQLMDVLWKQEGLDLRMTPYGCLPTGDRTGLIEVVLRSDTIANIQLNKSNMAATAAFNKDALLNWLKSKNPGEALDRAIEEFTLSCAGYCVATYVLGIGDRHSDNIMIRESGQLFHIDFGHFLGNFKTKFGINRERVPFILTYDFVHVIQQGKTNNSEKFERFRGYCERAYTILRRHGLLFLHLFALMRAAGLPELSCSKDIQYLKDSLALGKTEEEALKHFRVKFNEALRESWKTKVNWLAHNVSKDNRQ
T1 sequence (P27986 whole entry partner): as the sequence (P27986 whole entry partner) above

Row | Structure (SMILES) | IC50 [1] [nM] | IC50 [2] [nM] | IC50 [3] [nM] | IC50 ([2]; Table 4 (PI3K α inhibitors)) [nM] | IC50 ([3]; Table 4 (PI3K α inhibitors)) [nM] | IC50 ([1]; Table 4 (PI3K α inhibitors)) [nM] | IC50 [4] [nM] | IC50 ([4]; Table 4 (PI3K α inhibitors)) [nM]
1 | Nc1nc2cc(-c3ccc4ncnc(N5CCC(O)CC5)c4c3)ccc2o1 [Compound 29] | < 100 | < 100 | < 100 | – | – | – | – | –
2 | C[C@@H](N)C(=O)N1CCN(c2cnc3ccc(-c4ccc5oc(N)nc5c4)nc3n2)CC1 [Compound 582] | – | – | – | < 1000 | < 100 | – | – | –
3 | CN1CCN(c2ccc3ncc(-c4ccc5oc(N)nc5c4)cc3n2)CC1 [Compound 631] | – | – | – | > 10000 | – | > 10000 | – | –
4 | CCOC(=O)N1CCN(c2cnc3ccc(-c4ccc5oc(N)nc5c4)nc3c2)CC1 [Compound 587] | – | – | – | < 100 | < 100 | > 10000 | – | –
5 | C[C@@H]1CN(C2CN(c3cnc4ccc(-c5ccc6oc(N)nc6c5)nc4c3)C2)CCN1 [Compound 607] | – | – | – | < 1000 | < 100 | < 1000 | – | –
6 | Nc1nc2cc(-c3ccc4nccc(N5CCOCC5)c4c3)ccc2o1 [Compound 28] | < 1000 | < 100 | < 100 | – | – | – | – | –
7 | C[C@@H]1COCCN1c1cnc2ccc(-c3ccc4oc(N)nc4c3)nc2n1 [Compound 565] | – | – | – | < 100 | < 100 | – | – | –
8 | C[C@H]1COCCN1c1cnc2ccc(-c3ccc4oc(N)nc4c3)nc2n1 [Compound 566] | – | – | – | < 100 | < 100 | > 10000 | – | –
9 | Nc1nc2cc(-c3ccc4nccc(NC5CCOCC5)c4c3)ccc2o1 [Compound 32] | > 10000 | < 10000 | < 10000 | – | – | – | – | –
10 | Nc1nc2cc(-c3ccc4ncc(N5CCC(O)CC5)cc4n3)ccc2o1 [Compound 613] | – | – | – | < 1000 | < 100 | – | – | –
11 | CCOC(=O)N1CC=C(c2cnc3ccc(-c4ccc5oc(N)nc5c4)nc3n2)CC1 [Compound 560] | – | – | – | < 100 | < 100 | – | – | –
12 | C[C@@H]1COCCN1C1CN(c2cnc3ccc(-c4ccc5oc(N)nc5c4)nc3c2)C1 [Compound 617] | – | – | – | < 100 | < 100 | < 1000 | – | –
13 | Nc1nc2cc(-c3ccc4nccc(-c5cccnc5)c4c3)ccc2o1 [Compound 31] | < 100 | < 100 | < 100 | – | – | – | – | –
14 | CN1CCN(c2cc(-c3cnc4ccc(-c5ccc6oc(N)nc6c5)cn34)ccn2)CC1 [Compound 43] | < 100 | < 100 | < 100 | – | – | – | – | –
15 | CN1CCC(Oc2ncnc3ccc(-c4ccc5oc(N)nc5c4)cc23)CC1 [Compound 34] | < 1000 | < 1000 | < 100 | – | – | – | – | –
16 | CC(=O)N1CCC(n2cnc3ccc(-c4ccc5oc(N)nc5c4)cc3c2=O)CC1 [Compound 66] | > 10000 | > 10000 | < 10000 | – | – | – | – | –
17 | CS(=O)(=O)N1CCC(n2cnc3ccc(-c4ccc5oc(N)nc5c4)cc3c2=O)CC1 [Compound 67] | > 10000 | > 10000 | < 1000 | – | – | – | – | –
18 | Cc1cc(-c2ccc3oc(N)nc3c2)cc2c(C(=O)N3CCOCC3)cnn12 [Compound 357] | < 10000 | – | < 1000 | – | – | – | < 10000 | –
19 | Nc1nc2cc(-c3ccc4ncc(C5=CCOCC5)nc4n3)ccc2o1 [Compound 562] | – | – | – | < 100 | < 100 | > 10000 | – | –
20 | Cc1c(-c2ccc3oc(N)nc3c2)ccc2ncc(C(=O)N3CCOCC3)n12 [Compound 349] | > 10000 | – | > 10000 | – | – | – | > 10000 | –
21 | Nc1nc2cc(-c3ccc4ncc(N5CC(N6CCN(C7CC7)CC6)C5)cc4n3)ccc2o1 [Compound 621] | – | – | – | < 1000 | < 100 | – | – | –
22 | NC(=O)[C@H]1CCCN1C(=O)C1CN(c2cnc3ccc(-c4ccc5oc(N)nc5c4)cc3n2)C1 [Compound 284] | < 10000 | – | < 100 | – | – | – | < 10000 | –
23 | Nc1nc2cc(-c3ccc4nccc(NCCN5CCOCC5)c4c3)ccc2o1 [Compound 33] | < 1000 | < 1000 | < 100 | – | – | – | – | –
24 | O=C(c1cnc2ccc(-c3cccc(S(=O)(=O)Nc4cc(F)ccc4F)c3)cn12)N1CCOCC1 [Compound 441] | > 10000 | – | > 10000 | – | – | – | > 10000 | –

Row | Structure (SMILES) | IC50 [1] [nM] | IC50 [2] [nM] | IC50 [3] [nM] | IC50 ([2]; Table 4 (PI3K α inhibitors)) [nM] | IC50 ([3]; Table 4 (PI3K α inhibitors)) [nM] | IC50 ([1]; Table 4 (PI3K α inhibitors)) [nM] | IC50 [4] [nM] | IC50 ([4]; Table 4 (PI3K α inhibitors)) [nM]
25 | CC(=O)Nc1n[nH]c2cc(-c3ccc4oc(N)nc4c3)ccc12 [Compound 430] | > 10000 | – | < 10000 | – | – | – | < 10000 | –
26 | Nc1nc2cc(-c3ccc4ncc(C(=O)N5CCOCC5)n4c3)cnc2o1 [Compound 400] | > 10000 | – | < 100 | – | – | – | < 10000 | –
27 | Nc1nc2cc(-c3ccc4ncc(N5CCC(O)CC5)nc4n3)ccc2o1 [Compound 596] | – | – | – | < 100 | < 100 | > 10000 | – | –
28 | Nc1nc2cc(-c3ccc4ncc(N5CC6CCC(C5)O6)cc4n3)ccc2o1 [Compound 579] | – | – | – | < 1000 | – | – | – | –
29 | Nc1nc2cc(-c3ccc4ncc(C(=O)N5CCS(=O)(=O)CC5)n4c3)ccc2o1 [Compound 107] | > 10000 | – | < 1000 | – | – | – | > 10000 | –
30 | CN1CCN(c2cnc3ccc(-c4ccc5nc(N)oc5c4)cc3n2)CC1 [Compound 118] | > 10000 | – | < 1000 | – | – | – | < 100 | –
31 | CCOC(=O)N1CCN(c2cnc3ccc(-c4ccc5oc(N)nc5c4)nc3n2)CC1 [Compound 557] | – | – | – | – | < 100 | < 1000 | – | < 1000
32 | COc1ccc(-c2ccc3ncc(C(=O)N4CCOCC4)n3c2)cc1S(=O)(=O)Nc1ccccc1 [Compound 444] | > 10000 | – | < 10000 | – | – | – | > 10000 | –
33 | Nc1nc2cc(-c3ccc4ncc(C(=O)N5CC[C@@H](F)C5)n4c3)ccc2o1 [Compound 475] | < 10000 | – | < 100 | – | – | – | > 10000 | –
34 | CN1CCN(c2cc(-c3ccnc4ccc(-c5ccc6oc(N)nc6c5)cc34)ccn2)CC1 [Compound 30] | < 100 | < 100 | < 100 | – | – | – | – | –
35 | Nc1nc2cc(-c3cc(F)c4ncc(C(=O)N5CCOCC5)n4c3)ccc2o1 [Compound 438] | > 10000 | – | < 10000 | – | – | – | > 10000 | –
36 | C[C@H]1CN(c2cnc3cccc(-c4ccc5nc(N)oc5c4)c3n2)CCN1 [Compound 343] | > 10000 | – | > 10000 | – | – | – | < 10000 | –
37 | Nc1nc2cc(-c3ccc4ncc(-c5cn[nH]c5)n4c3)ccc2o1 [Compound 38] | < 100 | < 100 | < 100 | – | – | – | – | –
38 | CC(N)C(=O)N1CCN(c2cnc3ccc(-c4ccc5oc(N)nc5c4)cc3n2)CC1 (stereo not shown) [Compound 134] | < 1000 | – | < 100 | – | – | – | < 1000 | –
39 | Nc1nc2cc(-c3ccc4ncc(C(=O)N5CCOCC5)n4c3)c(Cl)cc2o1 [Compound 370] | > 10000 | – | < 10000 | – | – | – | > 10000 | –
40 | Nc1n[nH]c2cc(-c3ccc4ncc(C(=O)N5CCOCC5)n4c3)ccc12 [Compound 487] | > 10000 | – | > 10000 | – | – | – | > 10000 | –
41 | Nc1nc2cc(-c3nc4cc(-c5cccnc5)cnc4s3)ccc2o1 [Compound 402] | > 10000 | – | > 10000 | – | – | – | > 10000 | –
42 | CC1(C)CN(c2cnc3ccc(-c4ccc5oc(N)nc5c4)cc3n2)CCN1 [Compound 336] | < 10000 | – | < 1000 | – | – | – | < 1000 | –
43 | O=C(c1cnc2ccc(-c3cnc(Cl)c(NS(=O)(=O)c4ccccc4)c3)cn12)N1CCOCC1 [Compound 451] | < 100 | – | < 100 | – | – | – | < 1000 | –
44 | Nc1nc2cc(-c3ccc4nccc(CCN5CCOCC5)c4c3)ccc2o1 [Compound 27] | < 10000 | < 100 | < 1000 | – | – | – | – | –
45 | Nc1nc2cc(-c3ccc4ncc(N5CC(N6CCOCC6)C5)nc4c3)cc(Cl)c2o1 [Compound 358] | < 1000 | – | < 100 | – | – | – | < 1000 | –
46 | Nc1nc2cc(-c3ccc4ncc(C(=O)N5CC[C@H](n6cccn6)C5)n4c3)ccc2o1 [Compound 478] | < 1000 | – | < 100 | – | – | – | < 10000 | –
47 | O=C(c1cnc2ccc(-c3cncc(S(=O)(=O)Nc4ccccc4)c3)cn12)N1CCOCC1 [Compound 447] | > 10000 | – | < 10000 | – | – | – | > 10000 | –
